The target of one assay is T1, E. coli DNA gyrase (Escherichia coli, UniProt P0AES4+P0AES6).
T1 construct: purchased John Innes Enterprises Ltd. (John Innes Centre, UK)
The assay can be described thus: DNA gyrase inhibition assay (supercoiling). The conditions noted are these: E. coli DNA gyrase supercoiling, visual inspection of gels; read-out: DNA Gyrase IC50 (converted). In kind it is biochemical. In outline:
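Relaxed pBR322 (250 ng) was supercoiled by 0.2 unit gyrase in Tris-HCl pH 7.5, KCl, MgCl2, DTT, spermidine, 1 mM ATP, glycerol, albumin, 0.5% DMSO final, 30 min at 37° C. Products were resolved on 1.0% agarose gels with ethidium bromide staining.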

For another assay, the system named is CipR MRSA OC5273. The assay can be described thus: Resistant strains assay (broth microdilution MIC). In kind it is cell-based. The conditions noted are these: Staphylococcus aureus, read-out: MIC, Column H. The source says: (§1) Testing protocols followed NCCLS methodology for broth microdilution assays.
The next assay concerns MRSA OC3726 (COL). As to the kind of experiment: Resistant strains assay (broth microdilution MIC). In kind it is cell-based. The settings on record: Staphylococcus aureus, read-out: MIC, Column C.
From the text: as §1
For orientation: Broth dilution looks for growth in wells or tubes with falling amounts of substance.

In another assay the test system is MRSA OC2878. As to the kind of experiment: Resistant strains assay (broth microdilution MIC). Type of assay: cell-based. The settings on record: Staphylococcus aureus, read-out: MIC, Column D.
From the text: as §1

A further assay concerns CipR MRSA OC4222. As to the kind of experiment: Resistant strains assay (broth microdilution MIC). Type of assay: cell-based. The settings on record: Staphylococcus aureus; CipR MRSA OC4222; read-out: MIC, Column G.
From the text: as §1

In another assay the test system is CipR MRSA OC4159. The assay can be described thus: Resistant strains assay (broth microdilution MIC). Type of assay: cell-based. The settings on record: Staphylococcus aureus, read-out: MIC, Column F.
From the text: as §1

In the next assay the test system is MSSA ATCC13709 (Smith). As to the kind of experiment: Resistant strains assay (broth microdilution MIC). Type of assay: cell-based. The conditions noted are these: Staphylococcus aureus. On the procedure:
(§2) Compounds of the present invention were tested for activity against susceptible and resistant bacterial strains in vitro, and activity was compared to known anti-bacterial agents. Testing protocols followed NCCLS methodology for broth microdilution assays. MIC values in μg/mL are presented in Table 3 for the following strains: Column A: MSSA ATCC13709 (Smith); Column B: MSSA ATCC 29213; Column C: MRSA OC3726 (COL); Column D: MRSA OC2878.

The subject of a further assay is MSSA ATCC 29213. The assay can be described thus: Resistant strains assay (broth microdilution MIC). Type of assay: cell-based. The conditions noted are these: Staphylococcus aureus, read-out: MIC, Column B. On the procedure:
as §2

A further assay relates to CipR MRSA OC3946. As to the kind of experiment: Resistant strains assay (broth microdilution MIC). In kind it is cell-based. The conditions noted are these: Staphylococcus aureus, read-out: MIC, Column E. The protocol:
as §2
MIC values in μg/mL are presented in Table 4 for the following strains: Column E: CipR MRSA OC3946; Column F: CipR MRSA OC4159; Column G: CipR MRSA OC4222; Column H: CipR MRSA OC5273.

Assay [1] deals with E. coli KL-16 (GSC strain 4245). The assay can be described thus: In vitro antibacterial activity (MIC assay), broth microdilution. In kind it is cell-based. The conditions noted are these: Escherichia coli. In outline: (§3)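 Broth microdilution per NCCLS M7-A5: 11-point 2-fold compound dilutions from DMSO stocks, inoculum about 5×10^5 CFU/mL, incubation 35° C for 16–24 h. MIC scored visually against no-compound growth controls, in μg/mL.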

For the next assay, the system named is S. pneumoniae ATCC49619. The description is as above. The conditions noted are these: Streptococcus pneumoniae, ATCC49619; read-out: S. pneumoniae ATCC49619 MIC. Type of assay: cell-based. In outline:
as §3

The next assay has as its system S. aureus ATCC13709. The description is as above. In kind it is cell-based. The conditions noted are these: Staphylococcus aureus, ATCC13709; read-out: S. aureus ATCC13709 MIC. In outline: as §3
The next assay addresses T2, E. coli topoisomerase IV (Escherichia coli, UniProt P0AFI2+P20083).
T2 construct: purchased John Innes Enterprises Ltd. (John Innes Centre, UK)
The assay can be described thus: Topoisomerase IV inhibition assay (relaxation). In kind it is biochemical. The conditions noted are these: E. coli topoisomerase IV relaxation, visual inspection of gels; read-out: Topoisomerase IV IC50 (converted). In outline: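 Relaxation of 300 ng supercoiled pBR322 by 0.9 unit enzyme in HEPES-KOH pH 7.6 with potassium glutamate, Mg(OAc)2, DTT, tRNA, 2 mM ATP and BSA; final DMSO 0.5%. Reactions ran 45 min at 37° C. Products resolved on 1.0% agarose gels and stained with ethidium bromide.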

The structures appear in SMILES notation. ≈ marks a conversion by molar mass, not a printed value. Where two headings read alike, the source gives them in different places.

T1 sequence (P0AES4 whole entry, one chain of several): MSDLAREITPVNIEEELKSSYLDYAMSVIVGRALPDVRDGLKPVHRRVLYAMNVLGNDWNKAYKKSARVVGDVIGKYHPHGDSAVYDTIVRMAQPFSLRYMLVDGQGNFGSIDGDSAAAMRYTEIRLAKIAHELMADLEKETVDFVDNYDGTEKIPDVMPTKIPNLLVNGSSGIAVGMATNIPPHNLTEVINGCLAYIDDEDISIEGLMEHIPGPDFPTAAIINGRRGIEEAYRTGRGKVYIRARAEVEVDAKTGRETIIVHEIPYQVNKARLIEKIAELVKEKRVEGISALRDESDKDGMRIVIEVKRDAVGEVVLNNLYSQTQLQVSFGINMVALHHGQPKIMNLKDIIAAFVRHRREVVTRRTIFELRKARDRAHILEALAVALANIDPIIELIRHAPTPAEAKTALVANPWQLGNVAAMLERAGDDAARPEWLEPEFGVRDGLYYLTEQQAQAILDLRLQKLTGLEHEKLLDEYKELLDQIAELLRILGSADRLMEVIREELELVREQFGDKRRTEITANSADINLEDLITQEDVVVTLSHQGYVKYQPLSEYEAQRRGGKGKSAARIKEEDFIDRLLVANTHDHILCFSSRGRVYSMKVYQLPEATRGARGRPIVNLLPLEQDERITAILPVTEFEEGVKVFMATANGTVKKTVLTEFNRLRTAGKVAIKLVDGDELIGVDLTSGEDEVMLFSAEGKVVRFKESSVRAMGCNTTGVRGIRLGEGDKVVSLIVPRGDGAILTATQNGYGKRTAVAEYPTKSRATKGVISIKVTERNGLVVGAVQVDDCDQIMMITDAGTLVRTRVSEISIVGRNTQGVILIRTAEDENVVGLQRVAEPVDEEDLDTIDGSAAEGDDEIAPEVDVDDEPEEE
T2 sequence (P0AFI2 whole entry): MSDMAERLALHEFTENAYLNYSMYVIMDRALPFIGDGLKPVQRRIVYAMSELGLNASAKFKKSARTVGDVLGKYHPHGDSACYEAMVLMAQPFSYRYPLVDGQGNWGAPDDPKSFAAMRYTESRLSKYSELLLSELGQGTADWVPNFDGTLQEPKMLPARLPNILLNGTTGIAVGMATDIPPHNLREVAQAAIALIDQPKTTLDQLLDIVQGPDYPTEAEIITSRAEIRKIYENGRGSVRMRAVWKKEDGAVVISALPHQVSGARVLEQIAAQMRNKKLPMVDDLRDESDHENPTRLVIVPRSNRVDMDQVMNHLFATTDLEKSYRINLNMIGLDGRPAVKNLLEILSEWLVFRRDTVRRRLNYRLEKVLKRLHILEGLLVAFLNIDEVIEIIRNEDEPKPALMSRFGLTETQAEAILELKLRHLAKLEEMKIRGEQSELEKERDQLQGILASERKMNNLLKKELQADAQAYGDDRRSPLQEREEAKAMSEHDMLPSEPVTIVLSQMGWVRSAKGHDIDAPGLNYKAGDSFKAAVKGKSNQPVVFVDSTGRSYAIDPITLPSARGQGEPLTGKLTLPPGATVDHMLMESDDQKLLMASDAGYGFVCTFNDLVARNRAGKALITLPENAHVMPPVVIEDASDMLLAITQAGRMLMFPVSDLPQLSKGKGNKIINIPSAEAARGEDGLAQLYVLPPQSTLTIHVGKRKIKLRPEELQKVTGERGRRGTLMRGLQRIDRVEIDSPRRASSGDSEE
T2 sequence (P20083 whole entry): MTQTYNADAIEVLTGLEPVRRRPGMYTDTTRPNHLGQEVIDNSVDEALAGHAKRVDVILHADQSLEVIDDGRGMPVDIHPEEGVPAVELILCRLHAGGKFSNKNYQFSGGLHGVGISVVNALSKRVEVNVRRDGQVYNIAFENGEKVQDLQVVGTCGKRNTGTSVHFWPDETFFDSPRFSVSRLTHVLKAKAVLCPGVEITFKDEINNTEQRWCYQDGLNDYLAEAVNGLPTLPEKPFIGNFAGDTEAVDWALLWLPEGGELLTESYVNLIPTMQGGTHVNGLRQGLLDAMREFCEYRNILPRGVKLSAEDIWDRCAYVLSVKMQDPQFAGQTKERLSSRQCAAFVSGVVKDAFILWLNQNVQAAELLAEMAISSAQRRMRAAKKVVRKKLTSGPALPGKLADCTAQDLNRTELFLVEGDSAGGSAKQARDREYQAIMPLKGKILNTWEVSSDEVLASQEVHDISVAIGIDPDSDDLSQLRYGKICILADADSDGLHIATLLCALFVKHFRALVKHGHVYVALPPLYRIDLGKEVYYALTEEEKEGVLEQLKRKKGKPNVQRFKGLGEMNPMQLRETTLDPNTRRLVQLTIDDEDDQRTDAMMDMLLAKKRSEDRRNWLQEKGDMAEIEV

With `COc1ccc2nccc(-n3cc4c(n3)CCC(NC(=O)c3ccc5c(c3)NC(=O)CS5)C4)c2n1` (centres unmarked) [Example 4, 3-Oxo-3,4-dihydro-2H-benzo[1,4]thiazine-6-carboxylic acid [2-(6-methoxy-[1,5]naphthyridin-4-yl)-4,5,6,7-tetrahydro-2H-indazol-5-yl]-amide], the IC50 on E. coli DNA gyrase and on E. coli topoisomerase IV was 514 nM each time. The MIC amounted to 0.062 µg/mL (≈ 0.127 µM) in the assay with CipR MRSA OC5273; 0.062 µg/mL (≈ 0.127 µM) in the assay on MRSA OC3726 (COL) (MRSA OC3726 (COL)); 0.031 µg/mL (≈ 0.0637 µM) in the assay on MRSA OC2878 (MRSA OC2878); 0.5 µg/mL (≈ 1.03 µM) in the assay with CipR MRSA OC4222; 0.5 µg/mL (≈ 1.03 µM) in the assay with CipR MRSA OC4159; 0.06 µg/mL (≈ 0.123 µM) with MSSA ATCC13709 (Smith). The MIC in the assay on MSSA ATCC 29213 was 1 µg/mL (≈ 2.06 µM); in the assay on CipR MRSA OC3946 (CipR MRSA OC3946) it was 0.007 µg/mL (≈ 0.0144 µM); in assay [1], more than 128 µg/mL; in the assay on S. pneumoniae ATCC49619 it was 4 µg/mL (≈ 8.22 µM); with S. aureus ATCC13709, 0.06 µg/mL (≈ 0.123 µM).

`COc1ccc2nccc(-n3cc4c(n3)CCC(NC(=O)c3cc5c(cc3F)SCC(=O)N5)C4)c2n1` (centres unmarked) [Example 5, 7-Fluoro-3-oxo-3,4-dihydro-2H-benzo[1,4]thiazine-6-carboxylic acid [2-(6-methoxy-[1,5]naphthyridin-4-yl)-4,5,6,7-tetrahydro-2H-indazol-5-yl]-amide]: the figures for the IC50 at E. coli DNA gyrase and on E. coli topoisomerase IV were 238 nM and 248 nM, respectively. Moreover, the MIC is 0.031 µg/mL (≈ 0.0614 µM) with CipR MRSA OC5273; 0.062 µg/mL (≈ 0.123 µM) with MRSA OC3726 (COL) (MRSA OC3726 (COL)); 0.031 µg/mL (≈ 0.0614 µM) with MRSA OC2878 (MRSA OC2878); 0.015 µg/mL (≈ 0.0297 µM) in the assay on CipR MRSA OC4222; 0.007 µg/mL (≈ 0.0139 µM) in the assay with CipR MRSA OC4159; 0.25 µg/mL (≈ 0.495 µM) in the assay with MSSA ATCC13709 (Smith). The minimum inhibitory concentration (MIC) in the assay on MSSA ATCC 29213 turned out to be 0.031 µg/mL (≈ 0.0614 µM); in the assay with CipR MRSA OC3946 (CipR MRSA OC3946), 0.007 µg/mL (≈ 0.0139 µM); in assay [1] it was 128 µg/mL (≈ 254 µM); with S. pneumoniae ATCC49619 it was 2 µg/mL (≈ 3.96 µM); with S. aureus ATCC13709, 0.25 µg/mL (≈ 0.495 µM).

On to `COc1ccc2nccc(-n3cc4c(n3)CCC(NC(=O)c3ccc5c(c3)NC(=O)CS5)C4)c2c1` (centres unmarked) [Example 17, 3-Oxo-3,4-dihydro-2H-benzo[1,4]thiazine-6-carboxylic acid [2-(6-methoxy-quinolin-4-yl)-4,5,6,7-tetrahydro-2H-indazol-5-yl]-amide], for which the half-inhibitory concentration (IC50) is 247 nM on E. coli DNA gyrase and 257 nM at E. coli topoisomerase IV. Further, the MIC in the assay with CipR MRSA OC5273 was found to be 0.25 µg/mL (≈ 0.515 µM); in the assay on MRSA OC3726 (COL) (MRSA) it was 0.125 µg/mL (≈ 0.257 µM); in the assay with MRSA OC2878 (MRSA), 0.125 µg/mL (≈ 0.257 µM); in the assay on CipR MRSA OC4222, 0.062 µg/mL (≈ 0.128 µM); with CipR MRSA OC4159, 0.031 µg/mL (≈ 0.0638 µM); in the assay on MSSA ATCC13709 (Smith) it was 0.25 µg/mL (≈ 0.515 µM). Moreover, the MIC was determined as 0.062 µg/mL (≈ 0.128 µM) in the assay with MSSA ATCC 29213; 0.015 µg/mL (≈ 0.0309 µM) in the assay on CipR MRSA OC3946 (CipR MRSA OC3946); 4 µg/mL (≈ 8.24 µM) in assay [1]; 2 µg/mL (≈ 4.12 µM) in the assay with S. pneumoniae ATCC49619; 0.25 µg/mL (≈ 0.515 µM) with S. aureus ATCC13709.

Consider `O=C1CSc2ccc(C(=O)NC3CCc4nn(-c5cccc6cccnc56)cc4C3)cc2N1` (centres unmarked) [Example 31, 3-Oxo-3,4-dihydro-2H-benzo[1,4]thiazine-6-carboxylic acid (2-quinolin-8-yl-4,5,6,7-tetrahydro-2H-indazol-5-yl)-amide], for which the IC50 is 4390 nM on E. coli DNA gyrase and 274 nM at E. coli topoisomerase IV. Moreover, the MIC was 0.5 µg/mL (≈ 1.1 µM) in the assay on CipR MRSA OC5273; 0.5 µg/mL (≈ 1.1 µM) in the assay with MRSA OC3726 (COL) (MRSA OC3726 (COL)); 0.25 µg/mL (≈ 0.549 µM) in the assay with MRSA OC2878 (MRSA OC2878); 4 µg/mL (≈ 8.78 µM) with CipR MRSA OC4222; 4 µg/mL (≈ 8.78 µM) in the assay with CipR MRSA OC4159; 0.25 µg/mL (≈ 0.549 µM) against MSSA ATCC13709 (Smith). Besides, the MIC in the assay on MSSA ATCC 29213 is 16 µg/mL (≈ 35.1 µM); with CipR MRSA OC3946 (MRSA), 0.125 µg/mL (≈ 0.274 µM); in assay [1], 16 µg/mL (≈ 35.1 µM); in the assay on S. pneumoniae ATCC49619, 4 µg/mL (≈ 8.78 µM); with S. aureus ATCC13709, 0.25 µg/mL (≈ 0.549 µM).

As for `COc1ccc2nccc(-n3cc4c(n3)CCC(NCc3ccc5c(c3)NC(=O)CS5)C4)c2n1` (centres unmarked) [Example 41, 6-{[2-(6-Methoxy-[1,5]naphthyridin-4-yl)-4,5,6,7-tetrahydro-2H-indazol-5-ylamino]-methyl}-4H-benzo[1,4]thiazin-3-one], the IC50 on E. coli DNA gyrase is 127 nM; at E. coli topoisomerase IV, 33.9 nM. Also, the MIC in the assay on CipR MRSA OC5273 worked out at 0.5 µg/mL (≈ 1.06 µM); with MRSA OC3726 (COL) (MRSA OC3726 (COL)) it was 1 µg/mL (≈ 2.12 µM); in the assay with MRSA OC2878 (MRSA OC2878) it was 0.5 µg/mL (≈ 1.06 µM); with CipR MRSA OC4222 it was 0.25 µg/mL (≈ 0.529 µM); in the assay with CipR MRSA OC4159, 0.25 µg/mL (≈ 0.529 µM); with MSSA ATCC13709 (Smith), 0.25 µg/mL (≈ 0.529 µM). The MIC with MSSA ATCC 29213 came out at 0.25 µg/mL (≈ 0.529 µM); with CipR MRSA OC3946 (CipR MRSA OC3946) it was 0.25 µg/mL (≈ 0.529 µM); in assay [1] it was 2 µg/mL (≈ 4.23 µM); in the assay on S. pneumoniae ATCC49619, 2 µg/mL (≈ 4.23 µM); in the assay on S. aureus ATCC13709, 0.25 µg/mL (≈ 0.529 µM).

As a reminder, the IC50 is the concentration that inhibits the measured activity by half. As usually defined, the MIC is the least concentration at which growth counts as inhibited.

The values above are taken from patent US8242275B2, “Bicyclic pyrazole compounds as antibacterial agents” (Janssen Pharmaceutica NV, priority 2005, dated 2012).
